{
  "source": "patent US9586928B2",
  "about": "(The Scripps Research Institute, priority 2011, dated 2017)",
  "key": {"RORβ": {"target": "T1, RORβ (Homo sapiens, UniProt Q92753)", "T1 sequence (Q92753 1-470)": "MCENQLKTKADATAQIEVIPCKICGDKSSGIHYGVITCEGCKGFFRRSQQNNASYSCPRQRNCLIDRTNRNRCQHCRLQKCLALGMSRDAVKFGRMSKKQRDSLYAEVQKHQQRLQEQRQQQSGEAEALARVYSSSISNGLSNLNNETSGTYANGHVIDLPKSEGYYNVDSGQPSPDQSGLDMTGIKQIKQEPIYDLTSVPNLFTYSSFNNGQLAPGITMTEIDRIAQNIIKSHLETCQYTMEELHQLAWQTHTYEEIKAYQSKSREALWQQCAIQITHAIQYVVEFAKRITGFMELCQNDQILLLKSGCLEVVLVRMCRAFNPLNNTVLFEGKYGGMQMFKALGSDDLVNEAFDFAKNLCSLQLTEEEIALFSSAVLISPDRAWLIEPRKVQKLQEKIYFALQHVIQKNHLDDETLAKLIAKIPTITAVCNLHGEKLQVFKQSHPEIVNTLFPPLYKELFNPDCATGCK", "test": "Binding of radiolabeled T1317 to RORβ", "conditions": "radiolabeled compound"}, "RORα [1]": {"target": "T2, RORα (Homo sapiens, UniProt P35398)", "T2 construct": "expressed in transfected cells; host or cells: HEK293T", "T2 sequence (P35398 272-510 limits assumed)": "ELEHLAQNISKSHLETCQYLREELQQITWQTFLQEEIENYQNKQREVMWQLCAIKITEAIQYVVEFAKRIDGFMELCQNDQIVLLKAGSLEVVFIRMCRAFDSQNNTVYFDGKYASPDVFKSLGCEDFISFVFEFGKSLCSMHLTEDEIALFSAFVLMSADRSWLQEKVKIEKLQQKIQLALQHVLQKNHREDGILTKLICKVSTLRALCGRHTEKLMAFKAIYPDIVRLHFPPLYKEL", "test": "Gal4-RORα LBD / UAS luciferase cotransfection assay", "assay_type": "cell-based", "conditions": "Gal4 chimeric cotransfection"}, "EL4 cells": {"system": "EL4 cells", "test": "Il17a gene expression in EL4 cells by quantitative real-time PCR", "assay_type": "cell-based, murine", "conditions": "10 μM, 24 hours", "protocol": "[…]. Cotransfection assays were performed as previously described in HEK293 cells (Gal4 cotransfection assay or IL-17 luciferase reporter)[8]. HEK293 and the mouse lymphoma EL4 (ATCC) cells were maintained in DMEM supplemented with 10% FBS plus antibiotics (penicillin and streptomycin; Invitrogen).\n(§1) RNA extraction and QRT-PCR analysis was performed as previously described."}, "RORα [2]": {"target": "T3, RORα (Homo sapiens, UniProt P35398)", "T3 sequence (P35398 1-523)": "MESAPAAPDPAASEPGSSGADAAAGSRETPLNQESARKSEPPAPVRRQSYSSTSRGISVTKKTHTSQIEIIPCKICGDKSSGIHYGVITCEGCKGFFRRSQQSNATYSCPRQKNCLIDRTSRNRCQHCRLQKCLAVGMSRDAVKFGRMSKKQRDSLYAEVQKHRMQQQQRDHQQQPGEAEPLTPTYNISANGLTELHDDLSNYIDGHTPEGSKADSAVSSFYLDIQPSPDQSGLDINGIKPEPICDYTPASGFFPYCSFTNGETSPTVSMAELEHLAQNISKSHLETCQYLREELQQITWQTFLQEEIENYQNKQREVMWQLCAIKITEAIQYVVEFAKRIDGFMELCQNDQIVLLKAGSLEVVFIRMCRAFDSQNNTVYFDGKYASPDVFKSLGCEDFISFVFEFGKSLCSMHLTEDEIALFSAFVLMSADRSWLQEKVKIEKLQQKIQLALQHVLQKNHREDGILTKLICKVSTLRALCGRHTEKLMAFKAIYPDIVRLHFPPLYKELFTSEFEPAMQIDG", "test": "IL-17 promoter luciferase reporter with full-length RORα", "assay_type": "cell-based", "description": "Since RORα and RORγ are critical regulators of IL-17 gene expression, we examined whether SR1555 would affect RORα and RORγ-dependent regulation of an IL-17 promoter driven luciferase reporter construct. HEK293 cells were transiently transfected with an IL-17 reporter, either full-length RORα or RORγ, and treated with an increasing concentration of SR1555[8]. In a dose dependent manner, SR1555 suppressed IL-17 promoter driven activity by RORγ but not RORα, further confirming that SR1555 is indeed a RORγ-specific inverse agonist (FIG. 1d). Finally, using EL4 cells, a murine thymoma which endogenously express RORα, RORγ t, and IL-17A, we examined whether SR1555 affected endogenous IL-17 gene expression. EL4 cells were treated with DMSO or SR1555 for 24 hours and analyzed for Il17a gene expression by quantitative real-time PCR.\nCotransfection assays were performed as previously described in HEK293 cells (Gal4 cotransfection assay or IL-17 luciferase reporter)[8]. […]\nHEK293 cells were maintained in Dulbecco's modified Eagle's medium (DMEM) supplemented with 10% fetal bovine serum at 37° C. under 5% CO2. […] The luciferase levels were assayed following additional 20 hour incubation by one-step addition of BriteLite Plus (Perkin Elmer) and read using an Envision (Perkin Elmer). […]"}, "T regulatory cells": {"system": "T regulatory cells", "test": "T regulatory cell differentiation of splenocytes (RTPCR, Foxp3 FACS)", "assay_type": "cell-based, murine", "conditions": "10 μM", "protocol": "Therefore, the environmental cues associated with the concentration of TGF[…] dictates the balance between TH17 and T regulatory cell differentiation. In light of the reciprocal relationship between these two cell types, we assessed whether SR1555 affected the development of T regulatory cells in vitro. Splenocytes were cultured under T regulatory cell polarizing conditions (TGFβ and IL-2) for 3 days. […] To determine whether the gene expression data would correlate with protein expression, we again cultured splenocytes for 5 days under T regulatory cell polarizing conditions in the presence of DMSO or SR1555 and examined the expression of Foxp3 by intracellular cytokine FACS analysis.\nSplenocytes were differentiated under the following conditions: iTreg-10 μg/mL anti-IFNγ, 10 μg/mL anti-IL-4, and 2 ng/mL TGFβ (R&D Systems); 20 ug/mL anti-IFNγ, 20 ug/mL anti-IL-4, 1 ng/mL TGFβ, and 10 ng/mL IL-6 (R&D Systems) for TH17 conditions. All cultures were stimulated with 1 μg/mL anti-CD3 (eBiosciences) and 1 μg/mL anti-CD28 (eBiosciences). Four to five days after activation, all cells were restimulated with 5 ng/mL phorbol-12-myristate-13-acetate (PMA) (Sigma) and 500 ng/mL ionomycin (Sigma) for 2 hours with the addition of GolgiStop (BD Bioscience) for an additional 2 hours before intracellular staining. Cells were cultured in RPMI 1640 medium (Invitrogen) with 10% FBS and antibiotics.\nas §1"}, "LXR": {"target": "T4, LXR (Homo sapiens, UniProt Q13133)", "T4 sequence (Q13133 209-447 limits assumed)": "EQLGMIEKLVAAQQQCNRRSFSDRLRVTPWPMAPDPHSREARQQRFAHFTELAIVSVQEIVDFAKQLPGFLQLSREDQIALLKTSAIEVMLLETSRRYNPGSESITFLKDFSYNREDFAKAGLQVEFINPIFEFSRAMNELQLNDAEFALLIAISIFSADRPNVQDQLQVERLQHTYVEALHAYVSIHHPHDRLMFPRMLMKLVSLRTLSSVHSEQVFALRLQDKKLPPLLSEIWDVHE", "test": "Gal4-LXRα / UAS luciferase cotransfection assay", "assay_type": "cell-based", "conditions": "Gal4 chimeric cotransfection", "procedure": "The cells were treated with either DMSO or various compounds as indicated four hours after replating. Following additional 20 hour incubation, luciferase levels were assayed by one-step addition of 20 μL BriteLite (Perkin Elmer) and read using an Envision multilabel plate reader (Perkin Elmer)."}, "RORα [3]": {"target": "T2, RORα", "test": "Competitive radioligand binding assay on RORα", "conditions": "data not shown", "description": "Concurrent with our characterization of SR1001, several other groups identified RORγ-specific inverse agonists. Similar to SR1001, these ligands inhibited TH17 cell development and function. […] Compounds were identified using a screening approach similar to SR1001 and a RORγ-selective inverse agonist. SR1555, was identified (FIG. 1a). Compound SR1555 is shown as compound 3 in Table 1. […] Next we examined the direct binding of SR1555 to RORα and RORγ in competitive radioligand binding assays."}, "FXR": {"target": "T5, FXR (Homo sapiens, UniProt Q96RI1)", "T5 sequence (Q96RI1 262-486 limits assumed)": "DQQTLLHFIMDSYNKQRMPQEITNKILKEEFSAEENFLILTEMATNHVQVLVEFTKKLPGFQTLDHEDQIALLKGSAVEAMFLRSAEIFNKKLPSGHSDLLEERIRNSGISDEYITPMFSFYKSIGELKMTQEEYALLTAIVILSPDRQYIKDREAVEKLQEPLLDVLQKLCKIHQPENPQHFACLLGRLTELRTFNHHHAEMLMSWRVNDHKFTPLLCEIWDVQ", "test": "Gal4-FXR / UAS luciferase cotransfection assay", "assay_type": "cell-based", "conditions": "Gal4 chimeric cotransfection"}, "[4]": {"conditions": "T regulatory polarizing conditions, 3 days"}},
  "data": [
    {"smiles": "O=S(=O)(c1ccccc1)N(CC(F)(F)F)c1ccc(C(O)(C(F)(F)F)C(F)(F)F)cc1", "note": "[Compound T1317]", "values": [
      {"measurement": "binding to RORβ", "setting": "RORβ", "result": "does in fact bind to RORβ"}
    ]},
    {"smiles": "CC(=O)N1CCN(Cc2ccc(-c3ccc(C(O)(C(F)(F)F)C(F)(F)F)cc3)cc2)CC1", "note": "[SR1555]", "values": [
      {"measurement": "effect on transcriptional activity of RORα", "setting": "RORα [1]", "result": "devoid of LXR, FXR, and RORα activity"},
      {"measurement": "inhibition of Il17a gene expression", "setting": "EL4 cells", "result": "greater than 70%"},
      {"measurement": "IL-17 promoter driven activity by RORα", "setting": "RORα [2]", "result": "not RORα"},
      {"measurement": "expression of Foxp3+ T cells", "setting": "T regulatory cells; 5 days, FACS", "result": "almost two-fold increase"},
      {"measurement": "gene expression of Foxp3", "setting": "T regulatory cells; [4]", "result": "effectively increased the gene expression of Foxp3"},
      {"measurement": "gene expression of Rorγt", "setting": "T regulatory cells; [4]", "result": "suppressing the gene expression of Rorγt"},
      {"measurement": "effect on LXR activity", "setting": "LXR", "result": "devoid of LXR, FXR, and RORα activity"},
      {"measurement": "displacement of [3H]T0901317 from RORα", "setting": "RORα [3]", "result": "not RORα"},
      {"measurement": "effect on transcriptional activity of FXR", "setting": "FXR", "result": "devoid of LXR, FXR, and RORα activity"}
    ]}
  ]
}
